Data as given in patent publication US20240109918A1, “HETEROCYCLIC COMPOUNDS AND USES THEREOF” (Kumquat Biosciences Inc., priority 2022, published 2024).

Experiments:
KRASG12D = target: T1, KRASG12D (Homo sapiens, UniProt P01116, G12D); experiment: Bio-Biochem-PPI-HTRF Ras-SOS1 interaction assay (KRAS G12D); assay type: biochemical; settings: 5 nM
T1 construct: made in house; host or cells: E. coli BL21 (DE3)
Procedure: (§1) The assay buffer can contain −5 mM HEPES pH 7.4, ˜150 mM NaCl, ˜ 1 mM DTT, 0.05% BSA and 0.0025% (v/v) Igepal. A Ras working solution is prepared in an assay buffer containing typically a suitable amount of the protein construct (e.g., GST-tagged K-Ras mutant) and the FRET donor (e.g., antiGST-Eu(K) from Cisbio, France). A SOS1 working solution is prepared in an assay buffer containing suitable amount of the protein construct (e.g., His-hSOS1) and the FRET acceptor (e.g., anti-6His-XL665 from Cisbio, France). A suitable amount of the protein construct will depend on the range of activity or range of IC50 values being detected or under investigation. For detecting IC50 within a range of 500 nM, the protein constructs of the same range of molarity can be utilized. […] A fixed volume of DMSO with or without test compound is transferred into a 384-well plate. Ras working solution is added to all wells of the test plate. SOS1 working solution is added to all wells except for those that are subsequently filled the inhibitor control solution. Upon incubation for about 10 minutes or longer, the fluorescence is measured with a M1000Pro plate reader (Tecan) using HTRF detection (excitation 337 nm, emission 1:620 nm, emission 2: 665 nm). Compounds are tested in duplicates at different concentrations (for example, 10 μM, 2.5 μM, 0.63 μM, 0.16 μM, 0.04 μM, 0.01 μM test compound). The ratiometric data (i.e., emission 2 divided by emission 1) is used to calculate IC50 values against Ras using GraphPad Prism (GraphPad software). Following this general procedure, samples were tested with or without a subject compound disclosed herein including compounds exemplified in Table 1 to assess their abilities to inhibit a mutant K-Ras relative to another mutant K-Ras or wildtype K-Ras. Signaling output measured in terms of IC50 values can be obtained, a ratio of IC50 against one mutant relative to another mutant can be calculated. For instance, a selective reduction of K-Ras G12D signaling output can be evidenced by a ratio greater than one. In particular, a selective reduction of K-Ras G12D signaling relative to K-Ras WT signaling is evidenced as the ratio of IC50 (against K-Ras WT) to IC50 (against K-Ras G12D) is greater than 1.

KRASwt = target: T2, KRASwt (Homo sapiens, UniProt P01116); experiment: Bio-Biochem-PPI-HTRF Ras-SOS1 interaction assay (KRAS wt); assay type: biochemical; settings: 5 nM
T2 construct: made in house; host or cells: E. coli BL21 (DE3)
T2 sequence (P01116 1-188 isoform P01116-2): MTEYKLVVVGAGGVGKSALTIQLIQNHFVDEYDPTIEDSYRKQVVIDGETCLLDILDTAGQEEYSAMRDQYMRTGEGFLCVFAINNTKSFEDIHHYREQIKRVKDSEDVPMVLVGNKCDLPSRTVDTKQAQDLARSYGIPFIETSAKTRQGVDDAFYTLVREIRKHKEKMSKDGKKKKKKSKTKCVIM
Procedure: as §1

T1 sequence (P01116 1-188 isoform P01116-2 G12D): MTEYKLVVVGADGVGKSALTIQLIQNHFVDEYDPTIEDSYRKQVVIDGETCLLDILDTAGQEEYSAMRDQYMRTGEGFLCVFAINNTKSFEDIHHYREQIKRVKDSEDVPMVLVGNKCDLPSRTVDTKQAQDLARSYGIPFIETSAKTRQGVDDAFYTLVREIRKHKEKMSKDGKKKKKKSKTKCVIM

| IC50 (KRASG12D) | IC50 (KRASwt) | SMILES |
| --- | --- | --- |
| < 5 µM | < 5 µM | CC1(O)CCN(c2nc(OC[C@@]34CCCN3C[C@H](F)C4)nc3c(F)c(-c4ccc(F)c5sc(N)c(C#N)c45)c(Cl)cc23)CC2(CN(C(=O)[C@@H]3CC3(F)F)C2)C1 (stereo partly drawn) [compound 218, 2-amino-4-(6-chloro-4-(2-((S)-2,2-difluorocyclopropane-1-carbonyl)-9-hydroxy-9-methyl-2,6-diazaspiro [3.6]decan-6-yl)-8-fluoro-2-(((2R,7aS)-2-fluorotetrahydro-1H-pyrrolizin-7a(5H)-yl)methoxy)quinazolin-7-yl)-7-fluorobenzo[b]thiophene-3-carbonitrile] |
| < 5 µM | < 5 µM | N#Cc1c(N)sc2c(F)ccc(-c3c(Cl)cc4c(N5CCCCC6(CN(C(=O)c7ccnn7CCC(F)F)C6)C5)nc(OC[C@@]56CCCN5C[C@H](F)C6)nc4c3F)c12 [compound 341, 2-amino-4-(6-chloro-4-(2-(1-(3,3-difluoropropyl)-1H-pyrazole-5-carbonyl)-2,6-diazaspiro[3.6]decan-6-yl)-8-fluoro-2-(((2R,7aS)-2-fluorotetrahydro-1H-pyrrolizin-7a(5H)-yl)methoxy)quinazolin-7-yl)-7-fluorobenzo[b]thiophene-3-carbonitrile] |
| < 5 µM | < 5 µM | N#Cc1c(N)sc2c(F)ccc(-c3c(Cl)cc4c(N5CCCCC6(CN(C(=O)CC7CC7(F)F)C6)C5)nc(OC[C@@]56CCCN5C[C@H](F)C6)nc4c3F)c12 (stereo partly drawn) [compound 235, 2-amino-4-(6-chloro-4-(2-(2-(2,2-difluorocyclopropyl)acetyl)-2,6-diazaspiro[3.6]decan-6-yl)-8-fluoro-2-(((2R,7aS)-2-fluorotetrahydro-1H-pyrrolizin-7a(5H)-yl)methoxy)quinazolin-7-yl)-7-fluorobenzo[b]thiophene-3-carbonitrile] |
| < 5 µM | – | N#Cc1c(N)sc2c(F)ccc(-c3c(Cl)cc4c(N5CCCCC6(CN(C(=O)CC7COC7)C6)C5)nc(OC[C@@]56CCCN5C[C@H](F)C6)nc4c3F)c12 [compound 297, 2-amino-4-(6-chloro-8-fluoro-2-(((2R,7aS)-2-fluorotetrahydro-1H-pyrrolizin-7a(5H)-yl)methoxy)-4-(2-(2-(oxetan-3-yl)acetyl)-2,6-diazaspiro[3.6]decan-6-yl)quinazolin-7-yl)-7-fluorobenzo[b]thiophene-3-carbonitrile] |
| < 5 µM | – | N#Cc1c(N)sc2c(F)ccc(-c3c(Cl)cc4c(N5CCCCC6(CN(C(=O)C7CC(C#N)C7)C6)C5)nc(OC[C@@]56CCCN5C[C@H](F)C6)nc4c3F)c12 (stereo partly drawn) [compound 295, 2-amino-4-(6-chloro-4-(2-(3-cyanocyclobutane-1-carbonyl)-2,6-diazaspiro[3.6]decan-6-yl)-8-fluoro-2-(((2R,7aS)-2-fluorotetrahydro-1H-pyrrolizin-7a(5H)-yl)methoxy)quinazolin-7-yl)-7-fluorobenzo[b]thiophene-3-carbonitrile] |
| < 5 µM | – | CN1CCC[C@H]1COc1nc(N2CCOC3(CNC3)C2)c2cc(Cl)c(-c3ccc(F)c4sc(N)c(C#N)c34)c(F)c2n1 (single isomer, unassigned; atropisomer 2) [compound 121] |
| < 5 µM | – | N#Cc1c(N)sc2c(F)ccc(-c3c(Cl)cc4c(N5CCCCC6(CN(C(=O)CC7CC7(F)F)C6)C5)nc(OC[C@@]56CCCN5C[C@H](F)C6)nc4c3F)c12 (stereo partly drawn) [compound 331, 2-amino-4-(6-chloro-4-(2-(2-(2,2-difluorocyclopropyl)acetyl)-2,6-diazaspiro[3.6]decan-6-yl)-8-fluoro-2-(((2R,7aS)-2-fluorotetrahydro-1H-pyrrolizin-7a(5H)-yl)methoxy)quinazolin-7-yl)-7-fluorobenzo[b]thiophene-3-carbonitrile] |
| < 5 µM | – | N#Cc1c(N)sc2c(F)ccc(-c3c(Cl)cc4c(N5CCCCC6(CN(C(=O)N7CC(C(F)F)C7)C6)C5)nc(OC[C@@]56CCCN5C[C@H](F)C6)nc4c3F)c12 [compound 262, 2-amino-4-(6-chloro-4-(2-(3-(difluoromethyl)azetidine-1-carbonyl)-2,6-diazaspiro[3.6]decan-6-yl)-8-fluoro-2-(((2R,7aS)-2-fluorotetrahydro-1H-pyrrolizin-7a(5H)-yl)methoxy)quinazolin-7-yl)-7-fluorobenzo[b]thiophene-3-carbonitrile] |
| < 5 µM | – | N#Cc1c(N)sc2c(F)ccc(-c3c(Cl)cc4c(N5CCCCC6(CN(C(=O)C7C8COCC87)C6)C5)nc(OC[C@@]56CCCN5C[C@H](F)C6)nc4c3F)c12 (stereo partly drawn) [compound 299, 4-(4-(2-(3-oxabicyclo[3.1.0]hexane-6-carbonyl)-2,6-diazaspiro [3.6]decan-6-yl)-6-chloro-8-fluoro-2-(((2R,7aS)-2-fluorotetrahydro-1H-pyrrolizin-7a(5H)-yl)methoxy)quinazolin-7-yl)-2-amino-7-fluorobenzo[b]thiophene-3-carbonitrile] |
| < 5 µM | – | N#Cc1c(N)sc2c(F)ccc(-c3c(Cl)cc4c(N5CCCCC6(CN(C(=O)C7CC7)C6)C5)nc(OC[C@@]56CCCN5C[C@H](F)C6)nc4c3F)c12 [compound 281, 2-amino-4-(6-chloro-4-(2-(cyclopropanecarbonyl)-2,6-diazaspiro[3.6]decan-6-yl)-8-fluoro-2-(((2R,7aS)-2-fluorotetrahydro-1H-pyrrolizin-7a(5H)-yl)methoxy)quinazolin-7-yl)-7-fluorobenzo[b]thiophene-3-carbonitrile] |
| < 5 µM | – | N#Cc1c(N)sc2c(F)ccc(-c3c(Cl)cc4c(N5CCCCC6(CN(C(=O)N7CC[C@H]7C#N)C6)C5)nc(OC[C@@]56CCCN5C[C@H](F)C6)nc4c3F)c12 [compound 264, (2S)-1-(6-(7-(2-amino-3-cyano-7-fluorobenzo[b]thiophen-4-yl)-6-chloro-8-fluoro-2-(((2R,7aS)-2-fluorotetrahydro-1H-pyrrolizin-7a(5H)-yl)methoxy)quinazolin-4-yl)-2,6-diazaspiro[3.6]decane-2-carbonyl)azetidine-2-carbonitrile] |
| < 5 µM | – | N#Cc1c(N)sc2c(F)ccc(-c3c(Cl)cc4c(N5CCCCC6(CN(C(=O)C7CC78CCOC8)C6)C5)nc(OC[C@@]56CCCN5C[C@H](F)C6)nc4c3F)c12 (stereo partly drawn) [compound 310, 4-(4-(2-(5-oxaspiro[2.4]heptane-1-carbonyl)-2,6-diazaspiro[3.6]decan-6-yl)-6-chloro-8-fluoro-2-(((2R,7aS)-2-fluorotetrahydro-1H-pyrrolizin-7a(5H)-yl)methoxy)quinazolin-7-yl)-2-amino-7-fluorobenzo [b]thiophene-3-carbonitrile] |
| < 5 µM | – | N#Cc1c(N)sc2c(F)ccc(-c3c(Cl)cc4c(N5CCCCC6(CN(C(=O)C(F)Cl)C6)C5)nc(OC[C@@]56CCCN5C[C@H](F)C6)nc4c3F)c12 (stereo partly drawn) [compound 291, 2-amino-4-(6-chloro-4-(2-(2-chloro-2-fluoroacetyl)-2,6-diazaspiro[3.6]decan-6-yl)-8-fluoro-2-(((2R,7aS)-2-fluorotetrahydro-1H-pyrrolizin-7a(5H)-yl)methoxy)quinazolin-7-yl)-7-fluorobenzo[b]thiophene-3-carbonitrile] |
| < 5 µM | – | N#Cc1c(N)sc2c(F)ccc(-c3c(Cl)cc4c(N5CCCCC6(CN(C(=O)N7CC(F)(F)C7)C6)C5)nc(OC[C@@]56CCCN5C[C@H](F)C6)nc4c3F)c12 [compound 307, 2-amino-4-(6-chloro-4-(2-(3,3-difluoroazetidine-1-carbonyl)-2,6-diazaspiro[3.6]decan-6-yl)-8-fluoro-2-(((2R,7aS)-2-fluorotetrahydro-1H-pyrrolizin-7a(5H)-yl)methoxy)quinazolin-7-yl)-7-fluorobenzo[b]thiophene-3-carbonitrile] |
| < 5 µM | – | N#Cc1c(N)sc2c(F)ccc(-c3c(Cl)cc4c(N5CCCCC6(CN(C(=O)NC7(C(F)(F)F)CC7)C6)C5)nc(OC[C@@]56CCCN5C[C@H](F)C6)nc4c3F)c12 [compound 315, 6-(7-(2-amino-3-cyano-7-fluorobenzo[b]thiophen-4-yl)-6-chloro-8-fluoro-2-(((2R,7aS)-2-fluorotetrahydro-1H-pyrrolizin-7a(5H)-yl)methoxy)quinazolin-4-yl)-N-(1-(trifluoromethyl)cyclopropyl)-2,6-diazaspiro[3.6]decane-2-carboxamide] |
| < 5 µM | – | N#Cc1c(N)sc2c(F)ccc(-c3c(Cl)cc4c(N5CCCCC6(CN(C(=O)C78CC(C#N)(C7)C8)C6)C5)nc(OC[C@@]56CCCN5C[C@H](F)C6)nc4c3F)c12 [compound 321, 2-amino-4-(6-chloro-4-(2-(3-cyanobicyclo[1.1.1]pentane-1-carbonyl)-2,6-diazaspiro[3.6]decan-6-yl)-8-fluoro-2-(((2R,7aS)-2-fluorotetrahydro-1H-pyrrolizin-7a(5H)-yl)methoxy)quinazolin-7-yl)-7-fluorobenzo[b]thiophene-3-carbonitrile] |
